From ChEMBL document CHEMBL3526019, “Novel cytochrome P450-mediated ring opening of the 1,3,4-oxadiazole in setileuton, a 5-lipoxygenase inhibitor” (Drug Metab Dispos, 2011)

Legend:
Cytochrome P450 1A1 [1] = biological target: T1, Cytochrome P450 1A1 (Rattus norvegicus, UniProt P00185); test: Activity of rat recombinant CYP1A1 expressed in baculovirus-infected insect cells assessed as enzyme-mediated compound formation treated with setileuton at 10 uM preincubated for 3 mins measured after 30 mins in presence of 1 mM NADPH; format: ADME; conditions: 0.5 h
T1 sequence (P00185 whole entry): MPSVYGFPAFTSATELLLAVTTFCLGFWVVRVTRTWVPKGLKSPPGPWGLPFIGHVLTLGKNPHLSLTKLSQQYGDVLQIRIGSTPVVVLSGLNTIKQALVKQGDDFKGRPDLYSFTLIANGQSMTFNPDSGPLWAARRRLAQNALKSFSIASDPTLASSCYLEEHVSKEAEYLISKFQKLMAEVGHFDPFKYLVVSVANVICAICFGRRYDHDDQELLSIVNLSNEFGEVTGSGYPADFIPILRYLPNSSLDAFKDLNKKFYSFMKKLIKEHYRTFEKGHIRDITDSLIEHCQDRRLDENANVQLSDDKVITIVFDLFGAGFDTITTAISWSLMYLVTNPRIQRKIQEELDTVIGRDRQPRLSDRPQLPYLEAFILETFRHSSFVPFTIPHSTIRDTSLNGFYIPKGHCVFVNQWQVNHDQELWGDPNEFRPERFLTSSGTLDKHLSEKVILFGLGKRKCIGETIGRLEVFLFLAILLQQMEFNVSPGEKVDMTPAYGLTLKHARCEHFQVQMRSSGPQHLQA

Cytochrome P450 1A2 [2] = biological target: T2, Cytochrome P450 1A2 (Rattus norvegicus, UniProt P04799); test: Activity of CYP1A2 in rat liver microsomes assessed as enzyme mediated compound formation treated with 10 uM setileuton after 8 mins in absence of NADPH (reference value: 1.93 +/- 0.40 nM); format: ADME
T2 sequence (P04799 whole entry): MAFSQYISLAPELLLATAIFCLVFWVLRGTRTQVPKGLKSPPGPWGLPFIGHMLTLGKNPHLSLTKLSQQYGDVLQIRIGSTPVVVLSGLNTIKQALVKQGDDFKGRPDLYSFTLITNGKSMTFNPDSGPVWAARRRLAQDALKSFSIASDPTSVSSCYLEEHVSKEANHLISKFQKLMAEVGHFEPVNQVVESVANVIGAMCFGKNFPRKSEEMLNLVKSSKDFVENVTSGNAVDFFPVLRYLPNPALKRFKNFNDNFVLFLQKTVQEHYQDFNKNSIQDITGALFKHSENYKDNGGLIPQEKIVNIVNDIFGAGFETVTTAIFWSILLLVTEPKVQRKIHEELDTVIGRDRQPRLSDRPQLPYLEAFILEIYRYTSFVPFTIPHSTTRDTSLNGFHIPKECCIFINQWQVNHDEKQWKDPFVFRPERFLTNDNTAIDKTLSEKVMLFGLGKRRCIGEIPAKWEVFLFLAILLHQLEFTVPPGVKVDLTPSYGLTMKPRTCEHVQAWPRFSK

Cytochrome P450 1A2 [3] = biological target: T2, Cytochrome P450 1A2; test: Activity of CYP1A2 in rat liver microsomes assessed as enzyme mediated compound formation treated with 10 uM setileuton after 10 mins in presence of NADPH (reference value: 8.10 +/- 2.26 nM); format: ADME
Cytochrome P450 3A1 [4] = biological target: T3, Cytochrome P450 3A1 (Rattus norvegicus, UniProt P04800); test: Activity of rat recombinant CYP3A1 expressed in baculovirus-infected insect cells assessed as enzyme-mediated compound formation treated with setileuton at 10 uM preincubated for 3 mins measured after 30 mins in presence of 1 mM NADPH; format: ADME; conditions: 0.5 h
T3 sequence (P04800 whole entry): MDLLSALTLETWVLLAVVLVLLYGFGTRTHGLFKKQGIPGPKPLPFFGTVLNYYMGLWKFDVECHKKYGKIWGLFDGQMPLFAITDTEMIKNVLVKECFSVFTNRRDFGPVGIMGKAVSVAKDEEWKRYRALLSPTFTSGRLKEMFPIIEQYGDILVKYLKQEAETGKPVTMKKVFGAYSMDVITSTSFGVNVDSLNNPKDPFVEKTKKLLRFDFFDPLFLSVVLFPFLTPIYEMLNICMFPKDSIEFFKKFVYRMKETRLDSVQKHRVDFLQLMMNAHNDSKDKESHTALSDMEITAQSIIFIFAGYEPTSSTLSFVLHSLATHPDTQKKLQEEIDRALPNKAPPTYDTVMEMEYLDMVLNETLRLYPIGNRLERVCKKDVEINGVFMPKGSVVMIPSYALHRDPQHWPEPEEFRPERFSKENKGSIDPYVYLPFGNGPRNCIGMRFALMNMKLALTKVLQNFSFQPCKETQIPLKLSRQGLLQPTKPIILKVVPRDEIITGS

Liver microsome [5] = test: Drug level in NADPH fortified rat liver microsomes treated with setileuton; format: ADME
[6] = Drug level in rat urine treated with setileuton; format: ADME, tissue-based; conditions: in vivo
Cytochrome P450 1A2 [7] = biological target: T2, Cytochrome P450 1A2; test: Activity of CYP1A2 in rat liver microsomes assessed as enzyme mediated compound formation treated with 10 uM setileuton after 10 mins in absence of NADPH (reference value: 1.93 +/- 0.40 nM); format: ADME
Cytochrome P450 1A2 [8] = biological target: T2, Cytochrome P450 1A2; test: Activity of CYP1A2 in rat liver microsomes assessed as enzyme mediated compound formation treated with 10 uM setileuton after 5 mins in presence of NADPH (reference value: 8.10 +/- 2.26 nM); format: ADME
Cytochrome P450 1A2 [9] = biological target: T2, Cytochrome P450 1A2; test: Activity of CYP1A2 in rat liver microsomes assessed as enzyme mediated compound formation treated with 10 uM setileuton after 2 mins in absence of NADPH (reference value: 1.93 +/- 0.40 nM); format: ADME
Cytochrome P450 1A2 [10] = biological target: T2, Cytochrome P450 1A2; test: Activity of CYP1A2 in rat liver microsomes assessed as enzyme mediated compound formation treated with 10 uM setileuton after 2 mins in presence of NADPH (reference value: 8.10 +/- 2.26 nM); format: ADME
Cytochrome P450 1A2 [11] = biological target: T2, Cytochrome P450 1A2; test: Activity of rat recombinant CYP1A2 expressed in baculovirus-infected insect cells assessed as enzyme-mediated compound formation treated with setileuton at 10 uM preincubated for 3 mins measured after 30 mins in presence of 1 mM NADPH; format: ADME; conditions: 0.5 h
Cytochrome P450 3A2 [12] = biological target: T4, Cytochrome P450 3A2 (Rattus norvegicus, UniProt P05183); test: Activity of rat recombinant CYP3A2 expressed in baculovirus-infected insect cells assessed as enzyme-mediated compound formation treated with setileuton at 10 uM preincubated for 3 mins measured after 30 mins in presence of 1 mM NADPH; format: ADME; conditions: 0.5 h
T4 sequence (P05183 whole entry): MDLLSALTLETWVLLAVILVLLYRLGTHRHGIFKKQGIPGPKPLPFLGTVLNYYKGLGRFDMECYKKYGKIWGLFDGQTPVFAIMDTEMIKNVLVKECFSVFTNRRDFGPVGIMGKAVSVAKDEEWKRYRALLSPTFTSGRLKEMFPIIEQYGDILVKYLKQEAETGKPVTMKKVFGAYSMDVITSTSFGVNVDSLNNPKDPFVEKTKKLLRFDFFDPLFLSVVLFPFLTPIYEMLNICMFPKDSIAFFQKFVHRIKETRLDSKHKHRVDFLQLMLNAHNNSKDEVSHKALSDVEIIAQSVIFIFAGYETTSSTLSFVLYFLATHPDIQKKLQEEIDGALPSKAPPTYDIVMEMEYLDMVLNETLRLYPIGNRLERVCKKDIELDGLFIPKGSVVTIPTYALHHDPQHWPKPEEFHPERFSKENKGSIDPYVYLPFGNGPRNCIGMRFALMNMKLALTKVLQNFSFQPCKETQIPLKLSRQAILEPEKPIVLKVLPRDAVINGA

Cytochrome P450 1A2 [13] = biological target: T2, Cytochrome P450 1A2; test: Activity of CYP1A2 in rat liver microsomes assessed as enzyme mediated compound formation treated with 10 uM setileuton after 5 mins in absence of NADPH (reference value: 1.93 +/- 0.40 nM); format: ADME
Cytochrome P450 1A2 [14] = biological target: T2, Cytochrome P450 1A2; test: Activity of CYP1A2 in rat liver microsomes assessed as enzyme mediated compound formation treated with 10 uM setileuton after 8 mins in presence of NADPH (reference value: 8.10 +/- 2.26 nM); format: ADME
Cytochrome P450 1A1 [15] = biological target: T1, Cytochrome P450 1A1; test: (§1) Activity of rat recombinant CYP1A1 expressed in baculovirus-infected insect cells assessed as enzyme-mediated N-((4-(4-fluorophenyl)-2-oxochroman-7-yl)methyl)-2-((S)-2-hydroxy-2-(trifluoromethyl)butanoyl)hydrazinecarboxamide formation at 10 uM preincubated for 3 mins measured after 30 mins in presence of 1 mM NADPH; format: ADME; conditions: 0.5 h
Cytochrome P450 1A2 [16] = biological target: T2, Cytochrome P450 1A2; test: (§2) Activity of rat recombinant CYP1A2 expressed in baculovirus-infected insect cells assessed as enzyme-mediated N-((4-(4-fluorophenyl)-2-oxochroman-7-yl)methyl)-2-((S)-2-hydroxy-2-(trifluoromethyl)butanoyl)hydrazinecarboxamide formation preincubated for 3 mins by Michaelis-Menten equation in presence of NADPH for 10 mins; format: ADME
Liver microsome [17] = test: Drug metabolism in NADPH fortified rat liver microsomes assessed as N-((4-(4-fluorophenyl)-2-oxochroman-7-yl)methyl)-2-((S)-2-hydroxy-2-(trifluoromethyl)butanoyl)hydrazinecarboxamide level; format: ADME
Cytochrome P450 3A1 [18] = biological target: T3, Cytochrome P450 3A1; test: as §1, with “CYP3A1” for “CYP1A1”; format: ADME; conditions: 0.5 h
Cytochrome P450 3A2 [19] = biological target: T4, Cytochrome P450 3A2; test: as §1, with “CYP3A2” for “CYP1A1”; format: ADME; conditions: 0.5 h
Cytochrome P450 3A1 [20] = biological target: T3, Cytochrome P450 3A1; test: as §2, with “CYP3A1” for “CYP1A2”; format: ADME
Liver microsome [21] = test: Drug metabolism in rat liver microsomes assessed as N-((4-(4-fluorophenyl)-2-oxochroman-7-yl)methyl)-2-((S)-2-hydroxy-2-(trifluoromethyl)butanoyl)hydrazinecarboxamide formation by Michaelis-Menten equation in presence of 1 mM NADPH for 10 mins; format: ADME
[22] = Drug metabolism in rat urine assessed as N-((4-(4-fluorophenyl)-2-oxochroman-7-yl)methyl)-2-((S)-2-hydroxy-2-(trifluoromethyl)butanoyl)hydrazinecarboxamide level; format: ADME, tissue-based
Cytochrome P450 1A2 [23] = biological target: T2, Cytochrome P450 1A2; test: as §1, with “CYP1A2” for “CYP1A1”; format: ADME; conditions: 0.5 h
[24] = substrate: CC[C@](O)(c1nnc(NCc2ccc3c(-c4ccc(F)cc4)cc(=O)oc3c2)o1)C(F)(F)F; test: as §2, with “CYP1A1” for “CYP1A2”; format: ADME
[25] = substrate: CC[C@](O)(c1nnc(NCc2ccc3c(-c4ccc(F)cc4)cc(=O)oc3c2)o1)C(F)(F)F; test: as §2, with “CYP3A2” for “CYP1A2”; format: ADME

CC[C@](O)(C(=O)NNC(=O)NCc1ccc2c(-c3ccc(F)cc3)cc(=O)oc2c1)C(F)(F)F
Drug metabolism (Cytochrome P450 1A1 [1]): metabolite_detected | Drug metabolism (Cytochrome P450 1A2 [2]): 1.43 nM | Drug metabolism (Cytochrome P450 1A2 [3]): 100.4 nM | Drug metabolism (Cytochrome P450 3A1 [4]): metabolite_detected | Drug metabolism (Liver microsome [5]): metabolite_detected | Drug metabolism [6]: metabolite_detected | Drug metabolism (Cytochrome P450 1A2 [7]): 1.56 nM | Drug metabolism (Cytochrome P450 1A2 [8]): 57.93 nM | Drug metabolism (Cytochrome P450 1A2 [9]): 1.81 nM | Drug metabolism (Cytochrome P450 1A2 [10]): 29.74 nM | Drug metabolism (Cytochrome P450 1A2 [11]): metabolite_detected | Drug metabolism (Cytochrome P450 3A2 [12]): metabolite_detected | Drug metabolism (Cytochrome P450 1A2 [13]): 1.66 nM | Drug metabolism (Cytochrome P450 1A2 [14]): 74.89 nM

CC[C@](O)(c1nnc(NCc2ccc3c(-c4ccc(F)cc4)cc(=O)oc3c2)o1)C(F)(F)F [SETILEUTON]
Drug metabolism (Cytochrome P450 1A1 [15]): metabolite_detected | S50 (Cytochrome P450 1A2 [16]): 8.2 µM | Drug metabolism (Liver microsome [17]): metabolite_detected | Drug metabolism (Cytochrome P450 3A1 [18]): metabolite_detected | Drug metabolism (Cytochrome P450 3A2 [19]): metabolite_detected | S50 (Cytochrome P450 3A1 [20]): 8.2 µM | S50 (Liver microsome [21]): 10.6 µM | Drug metabolism [22]: metabolite_detected | Drug metabolism (Cytochrome P450 1A2 [23]): metabolite_detected

B1: Cytochrome P450 1A1 (Rattus norvegicus) (protein)
chain: MPSVYGFPAFTSATELLLAVTTFCLGFWVVRVTRTWVPKGLKSPPGPWGLPFIGHVLTLGKNPHLSLTKLSQQYGDVLQIRIGSTPVVVLSGLNTIKQALVKQGDDFKGRPDLYSFTLIANGQSMTFNPDSGPLWAARRRLAQNALKSFSIASDPTLASSCYLEEHVSKEAEYLISKFQKLMAEVGHFDPFKYLVVSVANVICAICFGRRYDHDDQELLSIVNLSNEFGEVTGSGYPADFIPILRYLPNSSLDAFKDLNKKFYSFMKKLIKEHYRTFEKGHIRDITDSLIEHCQDRRLDENANVQLSDDKVITIVFDLFGAGFDTITTAISWSLMYLVTNPRIQRKIQEELDTVIGRDRQPRLSDRPQLPYLEAFILETFRHSSFVPFTIPHSTIRDTSLNGFYIPKGHCVFVNQWQVNHDQELWGDPNEFRPERFLTSSGTLDKHLSEKVILFGLGKRKCIGETIGRLEVFLFLAILLQQMEFNVSPGEKVDMTPAYGLTLKHARCEHFQVQMRSSGPQHLQA
Km [24]: 6 µM

B2: Cytochrome P450 3A2 (Rattus norvegicus) (protein)
chain: MDLLSALTLETWVLLAVILVLLYRLGTHRHGIFKKQGIPGPKPLPFLGTVLNYYKGLGRFDMECYKKYGKIWGLFDGQTPVFAIMDTEMIKNVLVKECFSVFTNRRDFGPVGIMGKAVSVAKDEEWKRYRALLSPTFTSGRLKEMFPIIEQYGDILVKYLKQEAETGKPVTMKKVFGAYSMDVITSTSFGVNVDSLNNPKDPFVEKTKKLLRFDFFDPLFLSVVLFPFLTPIYEMLNICMFPKDSIAFFQKFVHRIKETRLDSKHKHRVDFLQLMLNAHNNSKDEVSHKALSDVEIIAQSVIFIFAGYETTSSTLSFVLYFLATHPDIQKKLQEEIDGALPSKAPPTYDIVMEMEYLDMVLNETLRLYPIGNRLERVCKKDIELDGLFIPKGSVVTIPTYALHHDPQHWPKPEEFHPERFSKENKGSIDPYVYLPFGNGPRNCIGMRFALMNMKLALTKVLQNFSFQPCKETQIPLKLSRQAILEPEKPIVLKVLPRDAVINGA
Km [25]: 2.2 µM
